Source: patent US20220370440A1 (Lead Discovery Center GmbH, priority 2018, published 2022)

How the values were obtained:
H1781 = H1781 CellTiter-Glo; type: cell-based; settings: NCI-H1781; 72 h compound incubation; read-out: H1781 CTG IC50
Protocol: 2. Measurement of Cellular Activity
The CellTiter-Glo Luminescent Cell Viability Assay (Promega) is a homogeneous method of determining the number of viable cells in culture. It is based on quantification of ATP, indicating the presence of metabolically active cells. Cells are seeded on day 1 at cell numbers that assure assay linearity and optimal signal intensity. After incubation for 24 h in humidified chambers at 37° C. and 5% CO2, compounds in DMSO are added at different concentrations. Cells are further incubated for 72 h at 37° C. and 5% CO2. Cells treated with the compound vehicle DMSO are used as positive controls and cells treated with 10 μM Staurosporine serve as negative controls. At day 5 the CellTiter Glo Reagent is prepared according to the instructions of the kit (Promega Inc.): Reagent is mixed 1:1 with cell culture medium. Thereon, mixture and assay plates are equilibrated at room temperature for 20 min. Equal volumes of the reagent-medium-mixture is added to the volume of culture medium present in each well. The plates are mixed at ˜200 rpm for 2 minutes on an orbital shaker. The microplates are then incubated at room temperature for 10 minutes for stabilization of the luminescent signal. Following incubation the luminescence is recorded on a Victor microplate reader (Perkin Elmer) using a 200 ms integration time. The data is then analyzed with Excel using the XLFIT Plugin (dose response Fit 205) for IC50-determination. As quality control the Z′-factor is calculated from 16 positive and negative control values. Only assay results showing a Z′-factor ≥0.5 are used for further analysis.
(§1) Inhibition is indicated as […] [nM] (“−”=not measured). Compounds having an activity designated as “A” provided an IC50≤100 nM; compounds having an activity designated as “B” provided an 100 nM<IC50≤500 nM; compounds having an activity designated as “C” provided an 500 nM<IC50≤1000 nM; compounds having an activity designated as “D” provided an 1000 nM<IC50≤100000 nM; and compounds having an activity designated as “E” provided an IC50>10000 nM.

[1] = target: Her2 Exon 20 INSYVMA Ba/F3 (Homo sapiens, UniProt P04626, DUP772-775, cells depend on it); assay: Her2 Exon 20 INSYVMA Ba/F3 CellTiter-Glo; type: cell-based; settings: CellTiter-Glo, 72 h, read-out: Her2 Exon 20 INSYVMA Ba/F3 CTG IC50
Her2 Exon 20 INSYVMA Ba/F3, sequence (P04626 with tags, fused parts or gaps DUP772-775): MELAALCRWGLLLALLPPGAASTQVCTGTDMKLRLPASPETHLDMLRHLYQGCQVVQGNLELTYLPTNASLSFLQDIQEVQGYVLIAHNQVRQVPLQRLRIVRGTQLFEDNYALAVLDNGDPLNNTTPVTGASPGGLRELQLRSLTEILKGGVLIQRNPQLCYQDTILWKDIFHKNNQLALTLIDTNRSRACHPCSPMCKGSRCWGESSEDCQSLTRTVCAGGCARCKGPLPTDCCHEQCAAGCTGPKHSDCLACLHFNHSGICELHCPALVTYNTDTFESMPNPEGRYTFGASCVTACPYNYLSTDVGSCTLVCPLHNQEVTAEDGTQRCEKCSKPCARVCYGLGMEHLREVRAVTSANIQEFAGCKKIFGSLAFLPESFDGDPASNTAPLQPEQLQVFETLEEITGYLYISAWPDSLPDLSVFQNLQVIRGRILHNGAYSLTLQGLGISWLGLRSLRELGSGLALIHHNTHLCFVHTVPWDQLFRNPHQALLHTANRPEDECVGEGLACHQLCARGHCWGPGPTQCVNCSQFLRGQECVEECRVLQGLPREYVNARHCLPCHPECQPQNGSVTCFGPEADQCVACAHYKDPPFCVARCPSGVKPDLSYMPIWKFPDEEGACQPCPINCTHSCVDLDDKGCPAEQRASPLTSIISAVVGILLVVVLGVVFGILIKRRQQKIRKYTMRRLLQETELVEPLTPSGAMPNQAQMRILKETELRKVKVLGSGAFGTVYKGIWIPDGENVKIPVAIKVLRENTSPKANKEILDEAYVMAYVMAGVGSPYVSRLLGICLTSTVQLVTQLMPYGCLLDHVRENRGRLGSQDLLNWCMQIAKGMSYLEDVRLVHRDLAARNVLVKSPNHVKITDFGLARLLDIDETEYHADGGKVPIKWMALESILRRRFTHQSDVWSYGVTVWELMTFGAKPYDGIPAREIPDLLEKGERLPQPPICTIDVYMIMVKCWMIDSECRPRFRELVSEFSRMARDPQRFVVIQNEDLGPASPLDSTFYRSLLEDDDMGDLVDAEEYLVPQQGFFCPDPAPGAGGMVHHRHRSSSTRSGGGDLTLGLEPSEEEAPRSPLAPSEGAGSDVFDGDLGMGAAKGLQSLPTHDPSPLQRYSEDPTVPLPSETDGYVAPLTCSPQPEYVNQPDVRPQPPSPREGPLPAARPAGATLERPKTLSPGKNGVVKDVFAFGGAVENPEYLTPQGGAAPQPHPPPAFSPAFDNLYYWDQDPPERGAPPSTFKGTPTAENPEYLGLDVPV
Method in brief: (§2)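 Ba/F3 cells dependent on the mutant kinase, seeded and grown 24 h, then treated with compound for 72 h at 37 °C, 5% CO2. Viability by CellTiter-Glo ATP luminescence versus DMSO and 10 μM staurosporine controls; IC50 from dose-response fit, plates accepted at Z′ ≥0.5; bins A ≤100 nM to E >10000 nM.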

HER2 INS YVMA = target: T1, HER2 INS YVMA (Homo sapiens, UniProt P04626, INS775YVMA); assay: Lance Kinase Activity Assay, HER2 INS YVMA (Her2 Exon 20 INSYVMA Lance); type: biochemical; settings: biochemical Lance assay
T1 construct: purchased DPF
T1 sequence (P04626 with tags, fused parts or gaps INS775YVMA): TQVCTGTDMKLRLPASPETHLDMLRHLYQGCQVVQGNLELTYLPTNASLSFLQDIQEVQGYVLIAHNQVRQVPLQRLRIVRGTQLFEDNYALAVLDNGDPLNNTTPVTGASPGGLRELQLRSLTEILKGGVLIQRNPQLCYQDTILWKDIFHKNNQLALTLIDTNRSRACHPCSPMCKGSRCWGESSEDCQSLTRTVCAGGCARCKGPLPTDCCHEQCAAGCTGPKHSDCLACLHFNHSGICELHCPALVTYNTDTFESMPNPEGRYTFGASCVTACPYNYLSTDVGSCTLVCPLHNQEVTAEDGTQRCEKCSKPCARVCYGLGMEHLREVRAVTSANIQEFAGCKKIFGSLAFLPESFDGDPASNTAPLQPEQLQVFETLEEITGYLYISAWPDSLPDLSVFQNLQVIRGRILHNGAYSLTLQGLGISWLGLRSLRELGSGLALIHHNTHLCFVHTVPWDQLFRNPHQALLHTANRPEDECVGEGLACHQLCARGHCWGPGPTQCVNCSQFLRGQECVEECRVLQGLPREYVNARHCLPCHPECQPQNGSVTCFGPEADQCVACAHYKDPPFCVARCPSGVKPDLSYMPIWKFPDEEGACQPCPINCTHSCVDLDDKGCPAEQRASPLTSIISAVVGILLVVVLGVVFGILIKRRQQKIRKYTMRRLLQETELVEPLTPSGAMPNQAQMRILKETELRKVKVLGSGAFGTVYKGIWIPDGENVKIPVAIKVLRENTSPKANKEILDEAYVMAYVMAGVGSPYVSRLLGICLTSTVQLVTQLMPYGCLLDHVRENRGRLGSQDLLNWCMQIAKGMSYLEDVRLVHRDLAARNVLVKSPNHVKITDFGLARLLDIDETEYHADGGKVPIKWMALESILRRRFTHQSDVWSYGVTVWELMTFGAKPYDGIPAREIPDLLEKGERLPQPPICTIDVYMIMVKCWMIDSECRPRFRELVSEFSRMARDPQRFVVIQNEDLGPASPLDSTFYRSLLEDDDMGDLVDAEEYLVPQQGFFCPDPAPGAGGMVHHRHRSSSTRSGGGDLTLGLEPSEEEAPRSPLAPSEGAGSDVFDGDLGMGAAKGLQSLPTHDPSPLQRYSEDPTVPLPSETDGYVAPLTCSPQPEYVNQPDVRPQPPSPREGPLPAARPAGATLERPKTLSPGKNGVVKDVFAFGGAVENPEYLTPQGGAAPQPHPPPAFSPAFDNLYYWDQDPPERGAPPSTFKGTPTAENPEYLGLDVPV
Method in brief: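 Kinase phosphorylates a ULight-labelled peptide substrate; Eu anti-phospho antibody gives TR-FRET (ex 340 nm, em 665/615 nm). Compounds in 1:3 serial dilution over 8 steps, reaction started with ATP, 1 h at room temperature, stopped with EDTA-containing detection mix for 1 h. IC50 from sigmoidal dose-response curves.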

[2] = Metabolic stability in mouse liver microsomes without cofactor NADPH; type: in vitro ADME; settings: 3 μM test compound, mouse liver microsomes, without NADPH, 50 min, 37° C., LC-MS/MS
Method in brief: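 Test compound (3 μM) was incubated with mouse liver microsomes without NADPH at 37° C. Depletion was followed by LC-MS/MS over time up to 50 min.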

EGFR wt = EGFR wt (Homo sapiens, UniProt P00533); assay: EGFR wt Lance assay; type: biochemical
EGFR wt, sequence (P00533 25-1210): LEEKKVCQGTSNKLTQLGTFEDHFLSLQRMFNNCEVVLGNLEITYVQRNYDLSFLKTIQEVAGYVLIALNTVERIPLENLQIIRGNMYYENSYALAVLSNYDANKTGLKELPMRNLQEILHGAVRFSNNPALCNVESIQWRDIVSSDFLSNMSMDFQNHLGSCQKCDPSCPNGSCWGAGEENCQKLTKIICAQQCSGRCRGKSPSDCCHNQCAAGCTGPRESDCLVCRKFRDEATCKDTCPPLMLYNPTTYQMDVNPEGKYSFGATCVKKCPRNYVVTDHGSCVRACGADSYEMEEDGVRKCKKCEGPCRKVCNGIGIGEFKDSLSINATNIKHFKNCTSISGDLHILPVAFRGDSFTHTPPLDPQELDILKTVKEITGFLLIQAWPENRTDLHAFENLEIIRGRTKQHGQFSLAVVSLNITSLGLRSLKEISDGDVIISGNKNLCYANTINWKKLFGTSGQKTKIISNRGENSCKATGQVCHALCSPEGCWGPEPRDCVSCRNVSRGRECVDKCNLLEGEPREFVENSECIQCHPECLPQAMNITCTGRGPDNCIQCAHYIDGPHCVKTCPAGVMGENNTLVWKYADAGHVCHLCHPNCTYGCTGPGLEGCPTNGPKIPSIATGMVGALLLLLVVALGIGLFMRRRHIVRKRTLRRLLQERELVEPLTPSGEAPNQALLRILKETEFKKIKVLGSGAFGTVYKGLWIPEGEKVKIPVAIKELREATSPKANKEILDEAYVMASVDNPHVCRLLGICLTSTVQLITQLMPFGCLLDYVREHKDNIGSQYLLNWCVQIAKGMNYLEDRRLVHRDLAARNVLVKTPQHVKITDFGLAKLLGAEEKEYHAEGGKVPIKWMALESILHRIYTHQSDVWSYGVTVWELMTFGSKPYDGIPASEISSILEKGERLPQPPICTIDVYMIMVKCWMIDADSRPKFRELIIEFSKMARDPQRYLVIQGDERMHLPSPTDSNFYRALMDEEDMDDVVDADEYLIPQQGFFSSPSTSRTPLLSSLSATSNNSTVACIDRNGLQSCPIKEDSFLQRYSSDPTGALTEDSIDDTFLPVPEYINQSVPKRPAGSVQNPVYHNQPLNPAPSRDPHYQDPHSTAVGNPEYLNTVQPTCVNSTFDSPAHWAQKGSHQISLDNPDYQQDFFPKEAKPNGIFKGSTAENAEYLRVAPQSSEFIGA
Protocol: as §1

[3] = target: EGFR Exon 20 INSNPH Ba/F3 (Homo sapiens, UniProt P00533, DUP771-773, cells depend on it); assay: EGFR Exon 20 INSNPH Ba/F3 CellTiter-Glo; type: cell-based; settings: CellTiter-Glo, 72 h, read-out: EGFR Exon 20 INSNPH Ba/F3 CTG IC50
Method in brief: as §2

A431 = A431 CellTiter-Glo; type: cell-based; settings: Homo sapiens, A-431; 72 h compound incubation; read-out: A431 CTG IC50
Method in brief: (§3)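 Cells seeded, after 24 h at 37° C/5% CO2 treated with compounds in DMSO at various concentrations for 72 h. Viability from ATP luminescence (CellTiter-Glo); DMSO and 10 μM Staurosporine as controls; IC50 from dose-response fit, plates accepted at Z′ ≥0.5.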

EGFR T790ML858R = EGFR T790ML858R (Homo sapiens, UniProt P00533, L858R/T790M); assay: EGFR T790ML858R Lance assay; type: biochemical
EGFR T790ML858R, sequence (P00533 25-1210 T790M/L858R): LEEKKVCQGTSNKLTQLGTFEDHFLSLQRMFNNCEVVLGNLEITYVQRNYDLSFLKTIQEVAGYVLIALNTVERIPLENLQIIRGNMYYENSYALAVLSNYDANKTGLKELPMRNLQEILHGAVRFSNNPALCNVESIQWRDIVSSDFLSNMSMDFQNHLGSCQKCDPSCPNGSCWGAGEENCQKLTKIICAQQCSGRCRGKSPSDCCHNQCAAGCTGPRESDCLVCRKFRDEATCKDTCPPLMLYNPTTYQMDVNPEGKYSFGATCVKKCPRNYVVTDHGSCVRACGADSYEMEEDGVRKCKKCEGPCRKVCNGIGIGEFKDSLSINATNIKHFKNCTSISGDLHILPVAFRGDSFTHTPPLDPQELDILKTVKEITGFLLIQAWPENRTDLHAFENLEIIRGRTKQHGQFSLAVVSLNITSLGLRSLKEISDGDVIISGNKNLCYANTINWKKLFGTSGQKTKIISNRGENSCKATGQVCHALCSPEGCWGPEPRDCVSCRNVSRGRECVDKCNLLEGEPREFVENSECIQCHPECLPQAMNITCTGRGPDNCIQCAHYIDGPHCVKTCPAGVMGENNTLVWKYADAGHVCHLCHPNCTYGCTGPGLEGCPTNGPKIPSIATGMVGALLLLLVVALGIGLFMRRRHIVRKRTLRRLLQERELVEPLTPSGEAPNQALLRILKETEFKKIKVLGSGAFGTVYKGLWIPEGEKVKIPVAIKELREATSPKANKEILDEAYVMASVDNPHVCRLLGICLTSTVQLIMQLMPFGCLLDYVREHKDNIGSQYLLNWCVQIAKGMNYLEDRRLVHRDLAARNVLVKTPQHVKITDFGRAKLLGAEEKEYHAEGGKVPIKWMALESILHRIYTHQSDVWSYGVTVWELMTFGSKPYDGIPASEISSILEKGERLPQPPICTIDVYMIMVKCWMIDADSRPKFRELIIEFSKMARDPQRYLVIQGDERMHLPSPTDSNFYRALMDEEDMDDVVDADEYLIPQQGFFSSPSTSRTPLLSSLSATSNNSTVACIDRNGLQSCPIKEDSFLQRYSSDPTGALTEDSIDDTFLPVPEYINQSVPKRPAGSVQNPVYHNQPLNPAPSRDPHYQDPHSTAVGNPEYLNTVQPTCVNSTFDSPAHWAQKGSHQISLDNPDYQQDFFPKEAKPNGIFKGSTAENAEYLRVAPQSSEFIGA
Protocol: as §1

H1975 = H1975 CellTiter-Glo; type: cell-based; settings: Homo sapiens, NCI-H1975; 72 h compound incubation; read-out: H1975 CTG IC50
Method in brief: as §3

SMILES | IC50 (H1781) [nM] | GI50 [1] [nM] | IC50 (HER2 INS YVMA) [nM] | Stability in presence of mouse liver microsomes without cofactor NADPH [% remaining after 50 min] [2] [% remaining after 50 min] | IC50 (EGFR wt) [nM] | GI50 [3] [nM] | IC50 (A431) [nM] | IC50 (EGFR T790ML858R) [nM] | IC50 (H1975) [nM]
C=CC(=O)Nc1cc(-c2c(-c3ccnc(N4CCN(C)CC4)c3)[nH]c3nccc(Cl)c23)ccc1C [Example 26, N-(5-(4-chloro-2-(2-(4-methylpiperazin-1-yl)pyridin-4-yl)-1H-pyrrolo[2,3-b]pyridin-3-yl)-2-methylphenyl)acrylamide] | 500 to 1000 | 100 to 500 | ≤ 100 | >99 | ≤ 100 | 100 to 500 | 100 to 500 | ≤ 100 | ≤ 100
C=CC(=O)Nc1cc(-c2c(-c3cccc(N4CCN(C)CC4)c3)[nH]c3nccc(Cl)c23)ccc1C [Example 17, N-(5-(4-chloro-2-(3-(4-methylpiperazin-1-yl)phenyl)-1H-pyrrolo[2,3-b]pyridin-3-yl)-2-methylphenyl)acrylamide] | 100 to 500 | 100 to 500 | ≤ 100 | 90 | ≤ 100 | 100 to 500 | 100 to 500 | ≤ 100 | ≤ 100
C=CC(=O)N1CCc2ccc(-c3c(-c4ccc(C5CCN(C)CC5)cc4)[nH]c4nccc(Cl)c34)cc21 [Example 55, 1-(6-(4-Chloro-2-(4-(1-methylpiperidin-4-yl)phenyl)-1H-pyrrolo[2,3-b]pyridin-3-yl)indolin-1-yl)prop-2-en-1-one 2,2,2-trifluoroacetate] | 1000 to 100000 | 500 to 1000 | ≤ 100 | >99 | ≤ 100 | 500 to 1000 | 1000 to 100000 | ≤ 100 | ≤ 100
C=CC(=O)N1CCc2ccc(-c3c(-c4ccc(CN5CCN(C)CC5)cc4)[nH]c4nccc(Cl)c34)cc21 [Example 60, 1-(6-(4-chloro-2-(4-((4-methylpiperazin-1-yl)methyl)phenyl)-1H-pyrrolo[2,3-b]pyridin-3-yl)indolin-1-yl)prop-2-en-1-one] | 500 to 1000 | 100 to 500 | ≤ 100 | >99 | ≤ 100 | 100 to 500 | 500 to 1000 | ≤ 100 | 100 to 500
C=CC(=O)N1CCc2ccc(-c3c(-c4ccc(N5CCN(C)CC5)c(F)c4)[nH]c4nccc(Cl)c34)cc21 [Example 57, 1-(6-(4-chloro-2-(3-fluoro-4-(4-methylpiperazin-1-yl)phenyl)-1H-pyrrolo[2,3-b]pyridin-3-yl)indolin-1-yl)prop-2-en-1-one] | 1000 to 100000 | 100 to 500 | ≤ 100 | >99 | ≤ 100 | 500 to 1000 | 1000 to 100000 | ≤ 100 | 100 to 500
C=CC(=O)Nc1cc(-c2c(-c3ccc(CN4CCN(C)CC4)cc3)[nH]c3nccc(OC)c23)ccc1C [Example 77, N-(5-(4-methoxy-2-(4-((4-methylpiperazin-1-yl)methyl)phenyl)-1H-pyrrolo[2,3-b]pyridin-3-yl)-2-methylphenyl)acrylamide] | 100 to 500 | 100 to 500 | ≤ 100 | >99 | ≤ 100 | 100 to 500 | 100 to 500 | ≤ 100 | ≤ 100
C=CC(=O)N1CCc2ccc(-c3c(-c4ccc(CN(C)C)cc4)[nH]c4nccc(Cl)c34)cc21 [Example 61, 1-(6-(4-chloro-2-(4-((dimethylamino)methyl)phenyl)-1H-pyrrolo[2,3-b]pyridin-3-yl)indolin-1-yl)prop-2-en-1-one] | 500 to 1000 | 100 to 500 | ≤ 100 | >99 | ≤ 100 | 100 to 500 | 100 to 500 | ≤ 100 | ≤ 100
C=CC(=O)N1CCc2ccc(-c3c(-c4ccnc(N5CCN(C)CC5)c4)[nH]c4nccc(Cl)c34)cc21 [Example 59, 1-(6-(4-chloro-2-(2-(4-methylpiperazin-1-yl)pyridin-4-yl)-1H-pyrrolo[2,3-b]pyridin-3-yl)indolin-1-yl)prop-2-en-1-one] | 100 to 500 | 100 to 500 | ≤ 100 | >99 | ≤ 100 | 100 to 500 | 100 to 500 | ≤ 100 | ≤ 100
C=CC(=O)Nc1cc(-c2c(-c3ccc(N4CCN(C)CC4)nc3)[nH]c3ncccc23)ccc1C [Example 78, N-(2-methyl-5-(2-(6-(4-methylpiperazin-1-yl)pyridin-3-yl)-1H-pyrrolo[2,3-b]pyridin-3-yl)phenyl)acrylamide 2,2,2-trifluoroacetate] | 500 to 1000 | 100 to 500 | 100 to 500 | >99 | ≤ 100 | 500 to 1000 | 100 to 500 | ≤ 100 | ≤ 100
C=CC(=O)Nc1cc(-c2c(-c3ccc(CN4CCOCC4)cc3)[nH]c3nccc(OC)c23)ccc1C [Example 75, N-(5-(4-methoxy-2-(4-(morpholinomethyl)phenyl)-1H-pyrrolo[2,3-b]pyridin-3-yl)-2-methylphenyl)acrylamide] | 100 to 500 | 100 to 500 | ≤ 100 | >99 | ≤ 100 | ≤ 100 | 100 to 500 | ≤ 100 | ≤ 100
C=CC(=O)Nc1cc(-c2c(-c3cccc(OCCN(C)C)c3)[nH]c3nccc(Cl)c23)ccc1C [Example 28, N-(5-(4-chloro-2-(3-(2-(dimethylamino)ethoxy)phenyl)-1H-pyrrolo[2,3-b]pyridin-3-yl)-2-methylphenyl)acrylamide] | 100 to 500 | 100 to 500 | ≤ 100 | >99 | ≤ 100 | 100 to 500 | 100 to 500 | ≤ 100 | ≤ 100
